# From US20210267977A1, “C[…] AFTER 5HT2A AGONISTS ADMINISTRATION” (Universitätsspital Basel, priority 2020, published 2021)
# Read-outs that look alike come from different tables or passages of the source.
# Experiments:
# healthy subjects [1] = assay: Example 3 clinical study: subjective drug effects (VAS, 5D-ASC), ketanserin or placebo 1 hour after LSD; details: for duration of action of LSD: three subjects
# Description: (§1) Study design: The study used a double-blind, placebo-controlled, random-order 2-period cross-over design with 2 treatment conditions: 1) 100 μg LSD+ketanserin (40 mg) and 2) 100 μg LSD+placebo. Ketanserin or placebo was administered 1 hour after LSD. The washout periods between sessions were at least 10 days. The study was registered at ClinicalTrials.gov (NCT04558294).
# (§2) Participants: Healthy subjects (men and women) were recruited. Participants who were younger than 25 years old were excluded from participating in the study. Additional exclusion criteria were age >65 years, pregnancy (urine pregnancy test at screening and before each test session), personal or family (first-degree relative) history of major psychiatric disorders (assessed by the Semi-structured Clinical Interview for Diagnostic and Statistical Manual of Mental Disorders, 4th edition, Axis I disorders by a trained psychiatrist), the use of medications that may interfere with the study medications (e.g. antidepressants, antipsychotics, sedatives), chronic or acute physical illness (abnormal physical exam, electrocardiogram, or hematological and chemical blood analyses), tobacco smoking (>10 cigarettes/day), lifetime prevalence of illicit drug use >10 times (except for Δ^9-tetrahydrocannabinol), illicit drug use within the last 2 months, and illicit drug use during the study (determined by urine drug tests).
# (§3) Study drugs: LSD (D-lysergic acid diethylamide base, high-performance liquid chromatography purity >99%; Lipomed AG, Arlesheim, Switzerland) was administered as an oral solution in units containing 100 μg LSD in 1 mL of 96% ethanol (Holze et al., 2019). Ketanserin was obtained as the marketed drug (KETENSIN® (Janssen)) and encapsulated with opaque capsules to ensure blinding. Ketanserin placebo consisted of identical opaque capsules filled with mannitol.
# (§4) Study procedures: The study included a screening visit, two 13 hour test sessions (7:00 AM-8:00 PM), and an end-of-study visit. LSD was administered at 8:00 AM. Ketanserin (40 mg) or placebo was administered at 9:00 AM. The outcome measures were repeatedly assessed for 12 hours after LSD administration.
# Subjective drug effects: Subjective effects were assessed repeatedly using visual analog scales (VASs) 0, 0.5, 1, 1.5, 2, 2.5, 3, 3.5, 4, 5, 6, 7, 8, 9, 10, 11, and 12 hours after LSD administration. The VASs were presented as 100-mm horizontal lines (0-100%), marked from “not at all” on the left to “extremely” on the right. The 5D-ASC scale (Dittrich, 1998; Studerus et al., 2010) was administered 12 hours after LSD administration to retrospectively rate alterations in waking consciousness induced by the drugs. Autonomic, adverse, and endocrine effects: Blood pressure, heart rate, and tympanic body temperature were repeatedly measured 1 hour before and 0, 0.5, 1, 1.5, 2.5, 3, 3.5, 4, 5, 6, 7, 8, 9, 10, 11, and 12 hours after LSD administration as previously described in detail (Hysek et al., 2010). Adverse effects were systematically assessed up to 12 hours after drug administration using the 66-item List of Complaints (Zerssen, 1976).
# 5HT2A receptor = target: T1, 5HT2A receptor (Homo sapiens, UniProt P28223); details: cited from earlier work
# T1 construct: ketanserin (40 mg orally) 1 hour prior to the oral administration of LSD; host or cells: human subjects (in vivo, endogenous receptor)
# healthy subjects [2] = assay: Example 2 clinical study: subjective drug effects (VAS, AMRS, 5D-ASC, MEQ), ketanserin before LSD; type: in vivo, human; details: 16 subjects
# Description: The study was registered at ClinicalTrials.gov (NCT03321136).
# 100 μg LSD/100 μg LSD). […] Placebo consisted of identical opaque capsules filled with mannitol.
# LSD or placebo was administered at 9:00 AM. The outcome measures were repeatedly assessed for 24 hours.
# The VASs for “concentration”, and “perception of time” were bidirectional (±50%). Marked from “not at all” on the left (−50), to “normal” in the middle (0), to “extremely” on the right (+50) for concentration and “slowed” (−50) and “racing” (+50) for “perception of time”. […] Mystical experiences were assessed using the German version (Liechti et al., 2017) of the 100-item States of Consciousness Questionnaire (SOCQ) (Griffiths et al., 2006) that includes the 43-item and newer 30-item MEQ (MEQ43 (Griffiths et al., 2006) and MEQ30 (Barrett et al., 2015)). The 60-item Adjective Mood Rating Scale (AMRS) (Janke & Debus, 1978) was administered 1 hour before and 3, 6, 9, 12, and 24 hours after drug administration.
# The criterion for significance was p<0.05.
# healthy subjects [3] = assay: Example 2 clinical study: autonomic and adverse effects (blood pressure, heart rate, body temperature, List of Complaints); details: ketanserin 40 mg before 200 μg LSD
# Excerpt: The washout periods between sessions were at least 10 days. The study was registered at ClinicalTrials.gov (NCT03321136).
# as §2, with “Participants” for “Participants: Healthy subjects (men and women) were recruited. Participants”, “tests). […]” for “tests).”
# Ketanserin (40 mg) or placebo was administered at 8:00 AM. […] The outcome measures were repeatedly assessed for 24 hours.
# Autonomic, adverse, and endocrine effects: Blood pressure, heart rate, and tympanic body temperature were repeatedly measured 1 hour before and 0, 0.5, 1, 1.5, 2.5, 3, 4, 5, 6, 7, 8, 9, 10, 11, 12, 14, 16, and 24 hours after drug administration as previously described in detail (Hysek et al., 2010). Adverse effects were systematically assessed 1 hour before and 12 and 24 hours after drug administration using the 66-item List of Complaints (Zerssen, 1976).
# Data analysis: Peak (Emax and/or Emin) or peak change from baseline (ΔEmax) values were determined for repeated measures. The values were then analyzed using repeated-measures analysis of variance (ANOVA), with drug as within-subjects factor, followed by Tukey post hoc comparisons using Statistica 12 software (StatSoft, Tulsa, Okla., USA). […]
# [4] = Example 2 clinical study: plasma LSD pharmacokinetics; details: ketanserin 40 mg before 200 μg LSD, one-compartment model
# Description: The blood samples were immediately centrifuged, and the plasma was subsequently stored at −80° C. until analysis.
# healthy subjects [5] = assay: Example 3 clinical study: cardiovascular and adverse effects (List of Complaints); details: for total of reported complaints on the LC list (mean±SEM): up to 12 hours after LSD
# Description: as §1, §2, §3, §4
# Subjective drug effects: Subjective effects were assessed repeatedly using visual analog scales (VASs) 0, 0.5, 1, 1.5, 2, 2.5, 3, 3.5, 4, 5, 6, 7, 8, 9, 10, 11, and 12 hours after LSD administration. […] Autonomic, adverse, and endocrine effects: Blood pressure, heart rate, and tympanic body temperature were repeatedly measured 1 hour before and 0, 0.5, 1, 1.5, 2.5, 3, 3.5, 4, 5, 6, 7, 8, 9, 10, 11, and 12 hours after LSD administration as previously described in detail (Hysek et al., 2010). Adverse effects were systematically assessed up to 12 hours after drug administration using the 66-item List of Complaints (Zerssen, 1976).
# humans = details: cited from earlier work
# [6] = 100 μg LSD + ketanserin 40 mg 1 hour after
# [7] = ketanserin 40 mg 1 hour after 100 μg LSD
# [8] = ketanserin 40 mg before 200 μg LSD, reduced to the level of 25 μg LSD
# T1 sequence (P28223 whole entry): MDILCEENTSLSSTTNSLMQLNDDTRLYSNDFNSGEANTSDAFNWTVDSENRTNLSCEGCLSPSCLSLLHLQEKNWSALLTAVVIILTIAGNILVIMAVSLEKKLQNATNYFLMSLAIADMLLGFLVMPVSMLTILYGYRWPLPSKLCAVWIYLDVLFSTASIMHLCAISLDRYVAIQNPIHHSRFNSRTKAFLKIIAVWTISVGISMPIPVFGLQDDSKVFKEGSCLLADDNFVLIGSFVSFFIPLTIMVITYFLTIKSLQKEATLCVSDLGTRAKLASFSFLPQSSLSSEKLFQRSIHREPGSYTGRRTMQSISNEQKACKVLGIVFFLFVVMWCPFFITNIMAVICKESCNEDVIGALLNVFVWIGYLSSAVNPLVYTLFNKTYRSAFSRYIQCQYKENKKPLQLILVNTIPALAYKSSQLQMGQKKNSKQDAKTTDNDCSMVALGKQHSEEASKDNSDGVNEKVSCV
structure (smiles),measurement,setting,value
O=C(c1ccc(F)cc1)C1CCN(CCn2c(=O)[nH]c3ccccc3c2=O)CC1 [ketanserin],total 3D-OAV score,healthy subjects [1]; [6],24%
same,duration of action of LSD,healthy subjects [1]; [6],4 h
same,"set-in of the ketanserin effect on the subjective response to LSD, time after ketanserin administration",healthy subjects [1]; [7],1 h
same,time to blockade of the LSD-typical effects,healthy subjects [1]; [7],within two hours
same,"typical mind altering effects of LSD on VAS (any drug effect, good drug effect, visual, auditory, synaesthetic, sense of time, ego-dissolution)",healthy subjects [1]; [7],very effectively reduced
same,reduction of the duration of action of LSD,healthy subjects [1]; ketanserin 40 mg 1 hour after 100 μg LSD vs placebo,approximately 60%
same,recurrence of the LSD effect,"healthy subjects [1]; ketanserin 40 mg 1 hour after 100 μg LSD, 12 hours observation",no recurrence of the LSD effect
same,nausea induced by LSD (VAS),"healthy subjects [1]; ketanserin 40 mg 1 hour after 100 μg LSD, more data needed",tended to reduce nausea
same,acute subjective psychedelic response to LSD,healthy subjects [1]; ketanserin 40 mg 1 hour after LSD base 100 μg,markedly shortened and also attenuated
same,feelings of tiredness (VAS),healthy subjects [1]; ketanserin 40 mg added to 100 μg LSD compared with placebo,increased feelings of tiredness
same,subjective feelings of stimulation (VAS),healthy subjects [1]; ketanserin 40 mg after 100 μg LSD compared with LSD alone,increased subjective feelings of stimulation
same,subjective effects of LSD on the 5D-ASC Scale,healthy subjects [1]; ketanserin 40 mg after 100 μg LSD in comparison with placebo,reduced the subjective effects of LSD
same,reduction of the total 3D-OAV score,healthy subjects [1]; ketanserin 40 mg after 100 μg LSD vs placebo,approximately 30%
same,effect on the LSD experience,"5HT2A receptor; ketanserin 40 mg orally 1 hour prior to LSD 200 μg, Liechti",similarly prevented the LSD experience
same,effect on the LSD experience,"5HT2A receptor; ketanserin 40 mg orally 1 hour prior to oral LSD 70-100 μg, Preller et al., 2017",prevent the LSD experience almost completely
same,LSD response on the AMRS,healthy subjects [2]; ketanserin 40 mg 1 hour before 200 μg LSD,"significantly prevented anxiety, introversion and emotional excitation"
same,overall subjective response to high-dose LSD,"healthy subjects [2]; ketanserin 40 mg 1 hour before 200 μg LSD, most P<0.001",reduced the subjective response to high-dose LSD approximately to the level of the 25 μg LSD dose
same,subjective effects on the 5D-ASC Scale,healthy subjects [2]; [8],significantly and markedly reduced
same,subjective effects on the MEQ and subscales 'Nadir' and 'Aesthetic experience' (SOCQ),healthy subjects [2]; [8],significantly and markedly reduced
same,acute adverse effects of 200 μg LSD (List of Complaints),healthy subjects [3],significantly prevented
same,LSD response on blood pressure,healthy subjects [3]; 16 subjects,transiently reduced the LSD response on blood pressure only up to 6 hours
same,LSD-induced heart rate response,healthy subjects [3]; 16 subjects,significantly prevented
same,effect on the PK of 200 μg LSD,[4],only minimally altered
same,total of reported complaints on the LC list (mean±SEM),healthy subjects [5]; 100 μg LSD + ketanserin 40 mg,8.3±4
same,"cardiovascular effects of LSD (blood pressure, heart rate, body temperature)",healthy subjects [5]; ketanserin 40 mg 1 hour after 100 μg LSD compared with placebo,no relevant effects on the cardiovascular effects of LSD
same,diastolic blood pressure,"healthy subjects [5]; ketanserin 40 mg 1 hour after 100 μg LSD, needing further study",transient decrease in diastolic blood pressure
"CCN(CC)C(=O)[C@@H]1C=C2c3cccc4[nH]cc(c34)C[C@H]2N(C)C1 [LSD, Lysergic acid diethylamide]",total 3D-OAV score,healthy subjects [1]; 100 μg LSD + placebo,34%
same,duration of action of LSD,healthy subjects [1]; 100 μg LSD + placebo 1 hour after,10 h
same,duration of subjective effects (mean±SD),"humans; 100 μg LSD, Holze et al., 2019, range: 5.3-12.8 hour",8.5 ± 2.0 h
same,duration of LSD effects,"humans; 100 μg dose, Dolder et al., 2017, range: 5-14 hours",8.2 ± 2.1 h
same,duration of LSD effects,"humans; 200 μg dose, Dolder et al., 2017, range: 7-19.5 hours",11.6 ± 1.7 h
same,total of reported complaints on the LC list (mean±SEM),healthy subjects [5]; 100 μg LSD + placebo,7±3.6
